# Measurements reported in ChEMBL document CHEMBL1287790, “Design, synthesis and SAR of thienopyridines as potent CHK1 inhibitors” (Bioorg Med Chem Lett, 2010).
# Target: T1, Serine/threonine-protein kinase Chk1 (Homo sapiens, UniProt O14757)
# T1 sequence (O14757 whole entry): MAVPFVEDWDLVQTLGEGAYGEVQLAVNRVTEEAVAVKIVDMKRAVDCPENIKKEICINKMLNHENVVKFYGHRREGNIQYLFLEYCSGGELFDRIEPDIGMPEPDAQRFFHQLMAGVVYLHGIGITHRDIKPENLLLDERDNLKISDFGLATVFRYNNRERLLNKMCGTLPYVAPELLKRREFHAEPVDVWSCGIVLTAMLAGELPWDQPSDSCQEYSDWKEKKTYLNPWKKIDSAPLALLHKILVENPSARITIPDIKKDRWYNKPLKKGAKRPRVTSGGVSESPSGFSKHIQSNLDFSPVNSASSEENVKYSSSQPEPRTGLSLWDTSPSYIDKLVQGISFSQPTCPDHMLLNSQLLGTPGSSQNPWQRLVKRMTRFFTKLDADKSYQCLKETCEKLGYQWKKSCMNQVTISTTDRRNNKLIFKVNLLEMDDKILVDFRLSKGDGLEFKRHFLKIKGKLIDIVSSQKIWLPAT
# Test: Inhibition of His-tagged CHK1 after 2 hrs by liquid scintillation counting
row,Compound,IC50 [nM]
1,NC(=O)c1cnc(NCC2CCCCN2)c2cc(-c3ccc(Cl)cc3)sc12 (centres undefined),292
2,NC(=O)c1cnc(N[C@H]2CCCNC2)c2cc(-c3cc4ccccc4o3)sc12,2
3,NC(=O)c1cnc(N[C@H]2CCCNC2)c2cc(-c3ccc4cc[nH]c4c3)sc12,16
4,NC(=O)c1cnc(N[C@H]2CCCNC2)c2cc(C#Cc3cccnc3)sc12,67
5,NC(=O)c1cnc(N[C@H]2CCCNC2)c2cc(-c3ccccc3Cl)sc12,21
6,NC(=O)c1cnc(N[C@H]2CCCNC2)c2cc(-c3ccc(F)cc3F)sc12,9
7,NC(=O)c1cnc(N[C@H]2CCCNC2)c2cc(Br)sc12,56
8,CNCCNc1ncc(C(N)=O)c2sc(-c3ccc(Cl)cc3)cc12,7
9,NC(=O)c1cnc(N[C@H]2CCCNC2)c2cc(-c3ncccn3)sc12,60
10,NC(=O)c1cnc(N[C@H]2CCCNC2)c2cc(-c3cccc(CO)c3)sc12,3
11,NC(=O)c1cnc(N[C@H]2CCCNC2)c2cc(-c3ccc(OC(F)(F)F)cc3)sc12,9
12,NC(=O)c1cnc(NC2CNC2)c2cc(-c3ccc(Cl)cc3)sc12,707
13,NC(=O)c1cnc(N[C@H]2CCCNC2)c2cc(-c3cccc(N4CCCC4)c3)sc12,3
14,NC(=O)c1cnc(N[C@H]2CCCNC2)c2cc(-c3ccc(C(F)(F)F)cc3)sc12,5
15,NC(=O)c1cnc(N[C@H]2CCCNC2)c2cc(-c3ccc(Oc4ccccc4)cc3)sc12,4
16,NC(=O)c1cnc(N[C@@H]2CCCC[C@H]2N)c2cc(-c3ccc(Cl)cc3)sc12,27100

row,Compound,IC50 [nM]
1,NC(=O)c1cnc(NC[C@@H]2CSCN2)c2cc(-c3ccc(Cl)cc3)sc12,937
2,NC(=O)c1cnc(N[C@H]2CCCNC2)c2sc(-c3ccc(Cl)cc3)cc12,4580
3,CC(=O)Nc1cccc(-c2cc3c(N[C@H]4CCCNC4)ncc(C(N)=O)c3s2)c1,2
4,CN(C)C(=O)c1ccc(-c2cc3c(N[C@H]4CCCNC4)ncc(C(N)=O)c3s2)cc1,1
5,NC(=O)c1cnc(N[C@H]2CCCNC2)c2cc(-c3cc(F)cc(F)c3)sc12,5
6,NC(=O)Nc1sc(-c2ccc(Cl)cc2)cc1C(=O)N1CCCC[C@H](N)C1,746
7,NC(=O)c1cnc(N[C@H]2CCNC2)c2cc(-c3ccc(Cl)cc3)sc12,14
8,NC(=O)c1cnc(NC[C@@H]2CCCN2)c2cc(-c3ccc(Cl)cc3)sc12,197
9,NC(=O)c1cnc(N[C@H]2CCCNC2)c2nc(-c3ccc(Cl)cc3)sc12,9
10,NC(=O)c1cnc(N[C@H]2CCCNC2)c2cc(-c3cccc4[nH]ccc34)sc12,5
11,CN(C)S(=O)(=O)c1ccc(-c2cc3c(N[C@H]4CCCNC4)ncc(C(N)=O)c3s2)cc1,16
12,N#Cc1cccc(-c2cc3c(N[C@H]4CCCNC4)ncc(C(N)=O)c3s2)c1,7
13,NC(=O)c1cnc(N2CCC[C@@H](N)C2)c2cc(-c3ccc(Cl)cc3)sc12,148
14,CN(C)S(=O)(=O)c1cccc(-c2cc3c(N[C@H]4CCCNC4)ncc(C(N)=O)c3s2)c1,20
15,NC(=O)c1cnc(N[C@H]2CCCNC2)c2ccsc12,717
16,NC(=O)Nc1sc(-c2ccc(Cl)cc2)cc1C(=O)NC1CCCCC1,2

# Other lines, results leading:
row,IC50 [nM],Compound
1,3,COc1ccc(-c2cc3c(N[C@H]4CCCNC4)ncc(C(N)=O)c3s2)cn1
2,3,NC(=O)c1cnc(N[C@H]2CCCNC2)c2cc(-c3ccncc3)sc12
3,4,NC(=O)c1cnc(N[C@H]2CCCNC2)c2cc(-c3ccccc3)sc12
4,34,NC(=O)c1cnc(N[C@H]2CCCNC2)c2cc(-c3cnc4ccccc4c3)sc12
5,3,COc1ccc(-c2cc3c(N[C@H]4CCCNC4)ncc(C(N)=O)c3s2)cc1
6,3,NC(=O)c1cnc(N[C@H]2CCCCNC2)c2cc(-c3ccc(Cl)cc3)sc12
7,5,NC(=O)c1cnc(N[C@H]2CCCNC2)c2cc(-c3cccnc3)sc12
8,8,Cn1ccc2cc(-c3cc4c(N[C@H]5CCCNC5)ncc(C(N)=O)c4s3)ccc21
9,4,NC(=O)c1cnc(N[C@H]2CCCNC2)c2cc(-c3cccc(Cl)c3)sc12
10,24,COc1ccc(F)cc1-c1cc2c(N[C@H]3CCCNC3)ncc(C(N)=O)c2s1
11,2,NC(=O)c1cnc(N[C@H]2CCCNC2)c2cc(-c3cccc(N)c3)sc12
12,1,NC(=O)c1ccc(-c2cc3c(N[C@H]4CCCNC4)ncc(C(N)=O)c3s2)cc1
13,5,NC(=O)c1cnc(N[C@H]2CCCNC2)c2cc(-c3ccc4ncccc4c3)sc12
14,5,NC(=O)c1cnc(N[C@H]2CCCNC2)c2cc(-c3ccc(F)cc3)sc12
15,2,NC(=O)c1cnc(N[C@H]2CCCNC2)c2cc(-c3ccc(F)c(F)c3)sc12
16,211,NC(=O)c1cnc(N[C@@H]2CCCNC2)c2cc(-c3ccc(Cl)cc3)sc12
17,60,NC(=O)c1cnc(N[C@H]2CCCNC2)c2cc(-c3ccc4[nH]ccc4c3)sc12
18,4,NC(=O)c1cnc(N[C@H]2CCCNC2)c2cc(-c3ccc4sccc4c3)sc12
19,9,NC(=O)c1cnc(N[C@H]2CCCNC2)c2cc(-c3ccc(Cl)c(F)c3)sc12
20,2,CS(=O)(=O)c1ccc(-c2cc3c(N[C@H]4CCCNC4)ncc(C(N)=O)c3s2)cc1
21,4,NC(=O)c1cnc(N[C@H]2CCCNC2)c2cc(-c3ccc(F)c(Cl)c3)sc12
22,19,COc1ccccc1-c1cc2c(N[C@H]3CCCNC3)ncc(C(N)=O)c2s1
